Experiments:
Assay type in all cases: cell-based
HeLa (cervical cancer) = assay: Antiproliferative activity (CCK-8 cell viability), HeLa; settings: Homo sapiens, 72 h, read-out: Antiproliferative activity in cancerous cells, HELA (inhibition of cell growth); for inhibition at 3.3 µM: Compound concentration: 3.3 μM; for inhibition at 10 µM: Compound concentration: 10 μM
Outline: (§1)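 Cells grown in DMEM (HepG2, SW480), MEM (HeLa) or F-12K (A549), each with 10% FBS, then exposed to compound at 3.3, 10 or 30 μM for 72 h at 37 °C. CCK-8 absorbance at 450 nm; viability expressed as percent of DMSO-treated cells, graded as growth inhibition bands.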

HepG2 (liver cancer) = assay: Antiproliferative activity (CCK-8 cell viability), HepG2; settings: Homo sapiens, 72 h, read-out: Antiproliferative activity in cancerous cells, HepG2 (inhibition of cell growth); for inhibition at 3.3 µM: Compound concentration: 3.3 μM; for inhibition at 10 µM: Compound concentration: 10 μM
Outline: as §1

[1] = tested on: MDA-MB-231 (breast cancer); assay: Antiproliferative activity (CCK-8 cell viability), MDA-MB-231; settings: Homo sapiens, 72 h, read-out: Antiproliferative activity in cancerous cells, MDA-MB-231 (inhibition of cell growth); for inhibition at 3.3 µM: Compound concentration: 3.3 μM; for inhibition at 10 µM: Compound concentration: 10 μM
Outline: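 MDA-MB-231 breast cancer cells, grown in DMEM with 10% FBS, were plated in 96-well plates at 2,000-5,000 cells/well. Once attached, they were exposed to compound and incubated at 37° C. for 72 h. Viability was then measured with CCK-8 (10 μL per well, 4 h at 37° C.) by absorbance at 450 nm, relative to DMSO vehicle wells.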

[2] = tested on: B16F10 (malignant melanoma); assay: Antiproliferative activity (CCK-8 cell viability), B16F10; settings: Mus musculus, 72 h, read-out: Antiproliferative activity in cancerous cells, B16F10 (inhibition of cell growth); for inhibition at 3.3 µM: B16-F10, Compound concentration: 3.3 μM; for inhibition at 10 µM: B16-F10, Compound concentration: 10 μM
Outline: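 B16F10 melanoma cells grown in DMEM with 10% FBS were plated in 96-well plates at 2,000-5,000 cells/well. After attachment they were exposed to compound in medium for 72 h at 37° C. CCK-8 solution (10 μL) was then added, and after 4 h at 37° C absorbance was read at 450 nm.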

[3] = tested on: A549 (lung adenocarcinoma); assay: Antiproliferative activity (CCK-8 cell viability), A549; settings: Homo sapiens, 72 h, read-out: Antiproliferative activity in cancerous cells, A549 (inhibition of cell growth); for inhibition at 3.3 µM: Compound concentration: 3.3 μM; for inhibition at 10 µM: Compound concentration: 10 μM
Outline: as §1

SW480 (colon cancer) = assay: Antiproliferative activity (CCK-8 cell viability), SW480; settings: Homo sapiens, 72 h, read-out: Antiproliferative activity in cancerous cells, SW480 (inhibition of cell growth); for inhibition at 3.3 µM: Compound concentration: 3.3 μM; for inhibition at 10 µM: Compound concentration: 10 μM
Outline: as §1

[4] = tested on: A431 (epidermoid carcinoma); assay: Antiproliferative activity (CCK-8 cell viability), A431; settings: Homo sapiens, 72 h, read-out: Antiproliferative activity in cancerous cells, A431 (inhibition of cell growth); for inhibition at 3.3 µM: A-431, Compound concentration: 3.3 μM; for inhibition at 10 µM: A-431, Compound concentration: 10 μM
Outline: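 A431 epidermoid carcinoma cells grown in DMEM with 10% FBS were plated at 2,000-5,000 cells/well in 96-well plates. After attachment they were exposed to compound at 3.3 μM, 10 μM, or 30 μM for 72 h at 37° C. Viability was then assessed by CCK-8 against DMSO vehicle-treated wells.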

| SMILES | inhibition at 3.3 µM (HeLa (cervical cancer)) [%] | inhibition at 10 µM (HeLa (cervical cancer)) [%] | inhibition at 3.3 µM (HepG2 (liver cancer)) [%] | inhibition at 10 µM (HepG2 (liver cancer)) [%] | inhibition at 3.3 µM [1] [%] | inhibition at 10 µM [1] [%] | inhibition at 3.3 µM [2] [%] | inhibition at 10 µM [2] [%] | inhibition at 3.3 µM [3] [%] | inhibition at 10 µM [3] [%] | inhibition at 3.3 µM (SW480 (colon cancer)) [%] | inhibition at 10 µM (SW480 (colon cancer)) [%] | inhibition at 3.3 µM [4] [%] | inhibition at 10 µM [4] [%] |
| --- | --- | --- | --- | --- | --- | --- | --- | --- | --- | --- | --- | --- | --- | --- |
| CCc1ccc2c(c1)C(CC(=O)O)=C(C)/C2=C/c1ccc(COCc2ccc(F)cc2)cc1 [B107, (Z)-2-(5-Ethyl-1-(4-(((4-fluorobenzyl)oxy)methyl)benzylidene)-2-methyl-1H-inden-3-yl)acetic acid] | < 30 | ≥ 50 | < 30 | < 30 | < 30 | 30 to 50 | < 30 | 30 to 50 | 30 to 50 | ≥ 50 | ≥ 50 | ≥ 50 | ≥ 50 | 30 to 50 |
| COc1ccc(COCc2ccc(/C=C3/C(C)=C(CC(=O)O)c4cc(F)ccc43)cc2)cc1Cl [B108, (Z)-2-(1-(4-(((3-Chloro-4-methoxybenzyl)oxy)methyl)benzylidene)-5-fluoro-2-methyl-1H-inden-3-yl)acetic acid] | 30 to 50 | ≥ 50 | < 30 | ≥ 50 | ≥ 50 | ≥ 50 | 30 to 50 | ≥ 50 | 30 to 50 | ≥ 50 | < 30 | ≥ 50 | 30 to 50 | ≥ 50 |
| CC1=C(CC(=O)O)c2cc(I)ccc2/C1=C\c1ccc(COCc2ccc(F)cc2)cc1 [B109, (Z)-2-(1-(4-(((4-Fluorobenzyl)oxy)methyl)benzylidene)-5-iodo-2-methyl-1H-inden-3-yl)acetic acid] | ≥ 50 | ≥ 50 | < 30 | ≥ 50 | ≥ 50 | ≥ 50 | < 30 | ≥ 50 | 30 to 50 | ≥ 50 | < 30 | ≥ 50 | < 30 | ≥ 50 |
| CC1=C(CC(=O)O)c2cc(C)ccc2/C1=C\c1ccc(COCc2ccc(F)cc2)cc1 [B110, (Z)-2-(1-(4-(((4-Fluorobenzyl)oxy)methyl)benzylidene)-2,5-dimethyl-1H-inden-3-yl)acetic acid] | < 30 | ≥ 50 | < 30 | 30 to 50 | ≥ 50 | ≥ 50 | ≥ 50 | ≥ 50 | 30 to 50 | ≥ 50 | < 30 | ≥ 50 | 30 to 50 | ≥ 50 |
| CC1=C(CC(=O)O)c2cc(F)ccc2/C1=C\c1ccc(COCc2ccc(C(F)(F)F)cc2)cc1 [B111, (Z)-2-(5-Fluoro-2-methyl-1-(4-(((4-(trifluoromethyl)benzyl)oxy)methyl)-benzylidene)-1H-inden-3-yl)acetic acid] | ≥ 50 | ≥ 50 | < 30 | ≥ 50 | 30 to 50 | ≥ 50 | 30 to 50 | ≥ 50 | 30 to 50 | ≥ 50 | < 30 | ≥ 50 | < 30 | ≥ 50 |
| COc1cc(COCc2ccc(/C=C3/C(C)=C(CC(=O)O)c4cc(F)ccc43)cc2)ccc1F [B113, (Z)-2-(5-Fluoro-1-(4-(((4-fluoro-3-methoxybenzyl)oxy)methyl)benzylidene)-2-methyl-1H-inden-3-yl)acetic acid] | < 30 | ≥ 50 | < 30 | < 30 | 30 to 50 | ≥ 50 | < 30 | < 30 | 30 to 50 | ≥ 50 | < 30 | ≥ 50 | ≥ 50 | ≥ 50 |
| CC1=C(CC(=O)O)c2cc(F)ccc2/C1=C\c1ccc(CCCc2ccccc2)cc1 [B114, (Z)-2-(5-Fluoro-2-methyl-1-(4-(3-phenylpropyl)benzylidene)-1H-inden-3-yl)acetic acid] | ≥ 50 | ≥ 50 | ≥ 50 | ≥ 50 | < 30 | < 30 | < 30 | < 30 | 30 to 50 | ≥ 50 | ≥ 50 | ≥ 50 | 30 to 50 | ≥ 50 |
| CC1=C(CC(=O)O)c2cc(Cl)ccc2/C1=C\c1ccc(COCc2ccc(Cl)cc2)cc1 [B115, (Z)-2-(5-Chloro-1-(4-(((4-chlorobenzyl)oxy)methyl)benzylidene)-2-methyl-1H-inden-3-yl)acetic acid] | < 30 | ≥ 50 | ≥ 50 | ≥ 50 | < 30 | < 30 | 30 to 50 | ≥ 50 | 30 to 50 | ≥ 50 | < 30 | ≥ 50 | ≥ 50 | ≥ 50 |
| CC1=C(CC(=O)O)c2cc(F)ccc2/C1=C\c1ccc(CCCCc2ccc(F)cc2)cc1 [B116, (Z)-2-(5-Fluoro-1-(4-(4-(4-fluorophenyl)butyl)benzylidene)-2-methyl-1H-inden-3-yl)acetic acid] | ≥ 50 | ≥ 50 | ≥ 50 | ≥ 50 | < 30 | < 30 | 30 to 50 | 30 to 50 | 30 to 50 | ≥ 50 | < 30 | ≥ 50 | ≥ 50 | ≥ 50 |
| CC1=C(CC(=O)O)c2cc(F)ccc2/C1=C\c1ccc(CCCc2ccc(F)cc2)cc1 [B117, (Z)-2-(5-Fluoro-1-(4-(3-(4-fluorophenyl)propyl)benzylidene)-2-methyl-1H-inden-3-yl)acetic acid] | < 30 | ≥ 50 | ≥ 50 | ≥ 50 | < 30 | < 30 | < 30 | ≥ 50 | 30 to 50 | ≥ 50 | ≥ 50 | ≥ 50 | 30 to 50 | ≥ 50 |
| COc1ccc2c(c1)C(CC(=O)O)=C(C)/C2=C/c1ccc(COCc2ccc(Cl)cc2)cc1 [B118, (Z)-2-(1-(4-(((4-Chlorobenzyl)oxy)methyl)benzylidene)-5-methoxy-2-methyl-1H-inden-3-yl)acetic acid] | < 30 | ≥ 50 | < 30 | ≥ 50 | < 30 | < 30 | ≥ 50 | ≥ 50 | 30 to 50 | ≥ 50 | ≥ 50 | ≥ 50 | ≥ 50 | ≥ 50 |

Source: US20260184663A1, “INDENE COMPOUNDS, PHARMACEUTICAL COMPOSITIONS THEREOF, AND THEIR THERAPEUTIC APPLICATIONS” (NucMito Pharmaceuticals co. Ltd., priority 2022, published 2026)
